Results on four compounds are retold here after patent publication US20220323406A1, “METHODS AND COMPOSITIONS FOR DIFFERENTIATING STEM CELLS” (Massachusetts Institute of Technology, priority 2019, published 2022).

Counter-ions that a name gives are not always drawn.

What all share (details): primary screen
Experiment [1] deals with ENR+CD organoids (ISC to Paneth cell differentiation). Kind of experiment: Primary screen: basal (non-stimulated) lysozyme secretion LYZ.NS, 2.5-D 384-well ENR+CD organoid differentiation. The class given is cell-based, mouse. An excerpt:
(§1) High-throughput screening.

Another experiment relates to ENR+CD organoids. Description: Primary screen: ATP (CellTiter-Glo 3D, CTG) cell number/viability, 2.5-D 384-well ENR+CD organoids.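 Note: compounds given at plating and again on day 3 over a 6-day differentiation from ENR+CV stem-cell-enriched precursors, ATP measured on day 6, plate median as control.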 Background: ATP-based viability assays read luminescence as a measure of living cells.
In experiment [2] the test system is ENR+CD organoids (ISC to Paneth cell differentiation). Description: Primary screen: CCh-stimulated lysozyme secretion LYZ.S, 2.5-D 384-well ENR+CD organoid differentiation. Format: cell-based, mouse.
Source text: as §1

Consider `COc1ccc2c(c1)C(=O)N(CCc1ccc(S(=O)(=O)NC(=O)NC3CCCCC3)cc1)C(=O)C2(C)C` [Gliquidone], for which the “Dose.FC.LYZ.NS (log2 fold change)” value worked out at 0.103 in experiment [1] (dose 0.08 uM), 0.037 in experiment [1] (dose 0.40 uM), 0.086 in experiment [1] (dose 2.00 uM) and 0.031 in experiment [1] (dose 10.00 uM). The “Z.LYZ.NS (standard z score)” value in experiment [1] (dose 0.08 uM) is recorded as 0.893; in experiment [1] (dose 0.40 uM), 0.322; in experiment [1] (dose 2.00 uM), 0.747; in experiment [1] (dose 10.00 uM), 0.268. Also, the “Dose.FC.CTG (log2 fold change)” value with ENR+CD organoids (dose 0.08 uM) stood at 0.124; with ENR+CD organoids (dose 0.40 uM), 0.103; with ENR+CD organoids (dose 2.00 uM), 0.246; in the experiment on ENR+CD organoids (dose 10.00 uM) it was 0.134. Also, the “Dose.FC.LYZ.S (log2 fold change)” value in experiment [2] (dose 0.08 uM) is given as 0.101; in experiment [2] (dose 0.40 uM), 0.070; in experiment [2] (dose 2.00 uM) it was 0.006; in experiment [2] (dose 10.00 uM), −0.020.

As to `COc1ccc2c(c1)c(C1=C(c3c[nH]c4ccccc34)C(=O)NC1=O)cn2CCCN(C)C` [Go 6983], the “Dose.FC.LYZ.NS (log2 fold change)” value in experiment [1] (dose 0.08 uM) is −0.005; in experiment [1] (dose 0.40 uM) it was 0.013; in experiment [1] (dose 2.00 uM) it was 0.091; in experiment [1] (dose 10.00 uM) it was −0.092. Moreover, the “Z.LYZ.NS (standard z score)” value is −0.046 in experiment [1] (dose 0.08 uM), 0.114 in experiment [1] (dose 0.40 uM), 0.791 in experiment [1] (dose 2.00 uM) and −0.798 in experiment [1] (dose 10.00 uM). For the same compound, the “Dose.FC.CTG (log2 fold change)” value with ENR+CD organoids (dose 0.08 uM) is 0.021; in the experiment with ENR+CD organoids (dose 0.40 uM), −0.036; in the experiment on ENR+CD organoids (dose 2.00 uM), 0.058; in the experiment on ENR+CD organoids (dose 10.00 uM), −0.181. The “Z.CTG (standard z score)” value in the experiment on ENR+CD organoids (dose 0.08 uM) is reported as 0.050; in the experiment on ENR+CD organoids (dose 0.40 uM), −0.085; in the experiment on ENR+CD organoids (dose 2.00 uM), 0.138; with ENR+CD organoids (dose 10.00 uM) it was −0.433. Further, the “Dose.FC.LYZ.S (log2 fold change)” value in experiment [2] (dose 0.08 uM) was 0.021; in experiment [2] (dose 0.40 uM) it was 0.007; in experiment [2] (dose 2.00 uM) it was −0.010; in experiment [2] (dose 10.00 uM), −0.073.

For `CN1C2CCCC1CC(NC(=O)c1nn(C)c3ccccc13)C2` (stereo not drawn) [Granisetron HCl], the “Dose.FC.LYZ.NS (log2 fold change)” value in experiment [1] (dose 0.08 uM) is given as 0.061; in experiment [1] (dose 0.40 uM) it was −0.002; in experiment [1] (dose 2.00 uM) it was 0.018; in experiment [1] (dose 10.00 uM), −0.043. The “Z.LYZ.NS (standard z score)” value in experiment [1] (dose 0.08 uM) was 0.531; in experiment [1] (dose 0.40 uM), −0.021; in experiment [1] (dose 2.00 uM), 0.155; in experiment [1] (dose 10.00 uM), −0.378. In addition, the “Dose.FC.CTG (log2 fold change)” value with ENR+CD organoids (dose 0.08 uM) is given as −0.214; in the experiment with ENR+CD organoids (dose 0.40 uM) it was −0.086; in the experiment with ENR+CD organoids (dose 2.00 uM) it was −0.178; in the experiment on ENR+CD organoids (dose 10.00 uM), −0.297. Besides, the “Dose.FC.LYZ.S (log2 fold change)” value was 0.015 in experiment [2] (dose 0.08 uM), 0.131 in experiment [2] (dose 0.40 uM), −0.007 in experiment [2] (dose 2.00 uM) and −0.103 in experiment [2] (dose 10.00 uM).

`Cl.Cl.O=S(=O)(NCCNC/C=C/c1ccc(Br)cc1)c1cccc2cnccc12` [H 89 2HCl]: the “Dose.FC.LYZ.NS (log2 fold change)” value came out at 0.140 in experiment [1] (dose 0.08 uM), 0.080 in experiment [1] (dose 0.40 uM), 0.086 in experiment [1] (dose 2.00 uM) and 0.132 in experiment [1] (dose 10.00 uM). Besides, the “Z.LYZ.NS (standard z score)” value was found to be 1.223 in experiment [1] (dose 0.08 uM), 0.695 in experiment [1] (dose 0.40 uM), 0.747 in experiment [1] (dose 2.00 uM) and 1.151 in experiment [1] (dose 10.00 uM). Besides, the “Dose.FC.CTG (log2 fold change)” value was determined as 0.350 in the experiment on ENR+CD organoids (dose 0.08 uM), 0.398 with ENR+CD organoids (dose 0.40 uM), 0.421 in the experiment with ENR+CD organoids (dose 2.00 uM) and 0.385 in the experiment on ENR+CD organoids (dose 10.00 uM). Further, the “Z.CTG (standard z score)” value was determined as 0.836 with ENR+CD organoids (dose 0.08 uM), 0.950 in the experiment on ENR+CD organoids (dose 0.40 uM), 1.005 in the experiment with ENR+CD organoids (dose 2.00 uM) and 0.919 in the experiment on ENR+CD organoids (dose 10.00 uM). Besides, the “Dose.FC.LYZ.S (log2 fold change)” value in experiment [2] (dose 0.08 uM) is 0.118; in experiment [2] (dose 0.40 uM) it was 0.148; in experiment [2] (dose 2.00 uM), 0.087; in experiment [2] (dose 10.00 uM), 0.000.
